Tests used:
[1] = system: human corneal endothelium cells (HCECs); assay: Annexin V-FITC / propidium iodide flow cytometry apoptosis assay; format: cell-based; settings: 50 μM and 100 μM, 24 hours (FIG. 3)
Method: Annexin V staining is a common method for detecting apoptotic cells. The human corneal endothelium cells (HCECs) were assessed for apoptosis using flow cytometry staining with annexin-V conjugated with fluorescein isothiocyanate and propidium iodide (FIG. 3). HCECs were cultured in DMEM/F12 containing 50 μM and 100 μM ferulic acid. Briefly, HCECs were grown to confluence and incubated for 24 hours in 24-well plates using the same conditions as in the previous sets of experiments. After centrifugation and washing in cold PBS, HCECs for annexin V-FITC staining were resuspended in binding buffer (10 mM HEPES, 140 mM sodium chloride, 5 mM potassium chloride, 1 mM magnesium dichloride, 2.5 mM calcium dichloride, pH 7.4) at a concentration of 10^6 cells/ml. Five hundred microliters containing 5×10^5 cells was transferred to a culture tube, and […] of FITC-conjugated annexin V was added. Positive controls were provided for both apoptotic and necrotic (10% ethanol) cell death. For simultaneous scoring of the differential cellular response, aliquots of 10^4 cells each were immediately processed for fluorescence-activated cell sorting (FACS) on a FACS Calibur flow cytometer (Becton-Dickinson). Excitation parameters were set at λEx=488 nm, and fluorescence emission was detected at […]=518 nm for annexin V-FITC.

[2] = system: bovine corneal endothelium cells; assay: TUNEL assay of AAPH induced apoptosis; format: cell-based; settings: ferulic acid 50 μM and 100 μM, AAPH 25 mM (FIG. 4)
Method: Terminal deoxynucleotidyl transferase (TdT) end-labeling (TUNEL) method (DeadEnd™ Fluorometric TUNEL System, Promega, Madison, USA) was used for apoptosis analysis according to the manufacturer's instructions (FIG. 4). Briefly, bovine cornea endothelium cells were seeded on LabTek® chamber slides at a density of 1×10^4 cells/well for 24 hours, treated with 50 μM ferulic acid for 3 hours, and then reacted with 25 mM AAPH (2,2′-azobis(2-amidinopropane dihydrochloride) for 6 hours. Slides were immersed in 4% formaldehyde for fixation, cells were permeabilized with Triton® X-100. Then equilibration buffer, nucleotide mix and rTdT enzyme were added in for apoptosis cells labeling. Finally, counterstaining the nucleus with propidium iodide, and observed by fluorescence microscopy. The green fluorescence spots in FIG. 4 represents the apoptotic cells (fluorescein-12-dUTP) with a red background (propidium iodide).

## COc1cc(/C=C/C(=O)O)ccc1O [ferulic acid]
[1]
  cytotoxicity (apoptosis, annexin-V/PI): no cytotoxic effect
[2]
  protection against AAPH induced damage (apoptosis, TUNEL): prevented and/or antagonized AAPH (25 mM) induced damage
